According to ChEMBL document CHEMBL1201862, “PubChem BioAssay data set” (2004):
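Briefly, cells in 96-well plates were exposed to five compound concentrations for 48 h, and endpoints were estimated by linear interpolation. GI50: concentration for 50% inhibition of growth.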 Activity calls are given as the source filed them. Rule as the data show it: active = GI50 up to about 1.1 µM and inactive = higher.

Tests used:
Test in all cases: DTP human tumour cell line panel, 48 h
786-0 = test system: 786-0
BT-549 = test system: BT-549
CCRF-CEM = test system: CCRF-CEM
HCT-116 = test system: HCT-116
HCT-15 = test system: HCT-15
HL-60 = test system: HL-60
HT-29 = test system: HT-29
IGROV-1 = test system: IGROV-1
K562 = test system: K562
MDA-MB-435 = test system: MDA-MB-435
MDA-N = test system: MDA-N
NCI-H460 = test system: NCI-H460
OVCAR-3 = test system: OVCAR-3
OVCAR-5 = test system: OVCAR-5
SF-295 = test system: SF-295
SK-MEL-28 = test system: SK-MEL-28
SNB-19 = test system: SNB-19
SNB-75 = test system: SNB-75
Malme-3M = test system: Malme-3M

Structure (SMILES) | GI50 (786-0) | GI50 (BT-549) | GI50 (CCRF-CEM) | GI50 (HCT-116) | GI50 (HCT-15) | GI50 (HL-60) | GI50 (HT-29) | GI50 (IGROV-1) | GI50 (K562) | GI50 (MDA-MB-435) | GI50 (MDA-N) | GI50 (NCI-H460) | GI50 (OVCAR-3) | GI50 (OVCAR-5) | GI50 (SF-295) | GI50 (SK-MEL-28) | GI50 (SNB-19) | GI50 (SNB-75) | GI50 (Malme-3M)
CC(C)=CC(=O)OC1C2C(C)=CC(=O)C(O)C2(C)C2C3(O)OCC24C(CC(=O)OC14)C(C)C3O (stereo unspecified) | 0.01 µM (active) | 0.00287 µM (active) | 0.00859 µM (active) | 0.00519 µM (active) | 0.0426 µM | 0.00269 µM (active) | 0.0104 µM (active) | 0.00849 µM (active) | 0.00521 µM (active) | 0.003 µM (active) | 0.00208 µM (active) | 0.0294 µM (active) | 0.00624 µM (active) | 0.0101 µM (active) | 0.0277 µM (active) | 0.00461 µM (active) | 0.00349 µM (active) | 0.0141 µM (active) | 
Cc1[nH]n(-c2ccccc2)c(=O)c1C(N(CCc1ccccc1)C1=NCC(C)S1)(C(F)(F)F)C(F)(F)F (stereo unspecified) | 13.9 µM (inactive) | 10.4 µM (inactive) | 19.3 µM (inactive) | 10.1 µM (inactive) | 13.3 µM | 7.69 µM (inactive) | 17.8 µM (inactive) |  | 15.2 µM (inactive) | 10.2 µM (inactive) | 8.63 µM (inactive) | 13.9 µM (inactive) | 8.77 µM (inactive) | 8.65 µM (inactive) | 9.02 µM (inactive) | 16.4 µM (inactive) | 15.5 µM (inactive) | 16.5 µM (inactive) | 11.1 µM (inactive)
O=C(O)CN1CCNCCN(CP(=O)(O)O)CC1 | 4.83 µM (inactive) | > 100 µM (inactive) | 4.94 µM (inactive) | 3.87 µM (inactive) | 4.25 µM | 3.22 µM (inactive) | 2.02 µM (inactive) | 4.15 µM (inactive) | 3.92 µM (inactive) | > 53 µM (inactive) | 5.35 µM (inactive) | 3.44 µM (inactive) |  | 6.52 µM (inactive) | 26.2 µM (inactive) | > 100 µM (inactive) | > 100 µM (inactive) | 14.2 µM (inactive) | 1.75 µM (inactive)
O=c1oc2ccccc2c(-c2ccc(O)cc2)c1Oc1ccccc1 | 23.1 µM (inactive) | 3.33 µM (inactive) | 25.4 µM (inactive) | 20 µM (inactive) | 7.83 µM | 54 µM (inactive) | > 52.1 µM (inactive) | 6.44 µM (inactive) | 34.6 µM (inactive) | 22.1 µM (inactive) | 14.3 µM (inactive) | 6.85 µM (inactive) | 17.5 µM (inactive) | 18.8 µM (inactive) | 22 µM (inactive) | 18.8 µM (inactive) | 17.7 µM (inactive) | > 46.8 µM (inactive) | 2.58 µM (inactive)
O=C1NC(NCc2ccc(F)cc2)=N/C1=C\c1ccccc1Cl | 11.2 µM (inactive) | 23.7 µM (inactive) |  | 14.5 µM (inactive) | 19.1 µM | 13.4 µM (inactive) | 15 µM (inactive) | 19.2 µM (inactive) | 11.9 µM (inactive) | 17.9 µM (inactive) | 16.8 µM (inactive) | 25 µM (inactive) | 16.5 µM (inactive) | 16.8 µM (inactive) | 17.1 µM (inactive) | 23.6 µM (inactive) | 19.8 µM (inactive) | 7.4 µM (inactive) | 16.8 µM (inactive)
CS(=O)(=O)Nc1ccc2ccccc2c1 | > 100 µM (inactive) | 30.4 µM (inactive) | > 100 µM (inactive) | > 100 µM (inactive) | > 100 µM | > 100 µM (inactive) | > 100 µM (inactive) | > 100 µM (inactive) | > 100 µM (inactive) | > 100 µM (inactive) | > 100 µM (inactive) | > 100 µM (inactive) | > 100 µM (inactive) | > 100 µM (inactive) | > 100 µM (inactive) | > 100 µM (inactive) | > 100 µM (inactive) | > 100 µM (inactive) | > 100 µM (inactive)
N#Cc1nsnc1-c1nc(-c2nsnc2C#N)nc(-c2nsnc2C#N)n1 | 61.9 µM (inactive) | > 100 µM (inactive) |  | > 100 µM (inactive) | > 100 µM | 76.6 µM (inactive) | > 100 µM (inactive) | > 100 µM (inactive) | > 100 µM (inactive) | > 100 µM (inactive) | > 100 µM (inactive) | > 100 µM (inactive) | > 100 µM (inactive) | > 100 µM (inactive) | > 100 µM (inactive) | > 100 µM (inactive) | > 100 µM (inactive) | > 100 µM (inactive) | > 100 µM (inactive)
O=c1c2ccccc2c2ccccc2c(=O)n1Cc1ccc2c(c1)OCO2 | 27 µM (inactive) | 20.9 µM (inactive) | 19.1 µM (inactive) | 19.1 µM (inactive) | 17 µM | 11.4 µM (inactive) | 22.6 µM (inactive) | 8.51 µM (inactive) | 7.45 µM (inactive) | 6.17 µM (inactive) | 10.1 µM (inactive) | 24.6 µM (inactive) | 24.6 µM (inactive) | 34 µM (inactive) | 35.4 µM (inactive) | 56.6 µM (inactive) | 52.1 µM (inactive) | 42.7 µM (inactive) | 67.9 µM (inactive)
S=C(NC/C(Br)=C/Br)Nc1cccc2ccccc12 | 38.8 µM (inactive) | 33.3 µM (inactive) | 18.3 µM (inactive) | 24.2 µM (inactive) | 31.3 µM | 12.9 µM (inactive) | 34.5 µM (inactive) | 29.3 µM (inactive) | 11.7 µM (inactive) | 34 µM (inactive) | 25.4 µM (inactive) |  | 24 µM (inactive) | 33.6 µM (inactive) | 33.3 µM (inactive) |  | 34 µM (inactive) | 33.5 µM (inactive) | 28.9 µM (inactive)
Cc1nn(-c2ccccc2)c2c1N=C(C(=O)O)CC(c1ccccc1)=N2 | > 10 µM (inactive) | > 10 µM (inactive) |  | > 10 µM (inactive) | > 10 µM | > 10 µM (inactive) | > 10 µM (inactive) | > 10 µM (inactive) | > 10 µM (inactive) | > 10 µM (inactive) | > 10 µM (inactive) |  | > 10 µM (inactive) |  | > 10 µM (inactive) | > 10 µM (inactive) | > 10 µM (inactive) | > 10 µM (inactive) | > 10 µM (inactive)
COC(=O)C1(Cc2ccc3c(c2)CCC3)Cc2ccc3c(c2C1O)CCC3 (stereo unspecified) | 14.7 µM (inactive) | 14.9 µM (inactive) | > 100 µM (inactive) | 11.8 µM (inactive) | > 10 µM | 23.1 µM (inactive) | 15.2 µM (inactive) | > 10 µM (inactive) | > 100 µM (inactive) | 13 µM (inactive) | 15.4 µM (inactive) | 21 µM (inactive) | 13.8 µM (inactive) |  | 17.5 µM (inactive) | 14.7 µM (inactive) |  | 32.2 µM (inactive) | 12.2 µM (inactive)
O=c1[nH]/c(=C/c2ccc(OCc3ccccc3)cn2)c(=O)[nH]/c1=C/c1cccnc1 | 0.474 µM (active) | 14.2 µM (inactive) | 0.537 µM (active) | 0.342 µM (active) | 0.254 µM | 0.117 µM (active) | 0.759 µM (active) | 0.908 µM (active) | 0.318 µM (active) | 0.0845 µM (active) | 0.106 µM (active) | 0.41 µM (active) | 0.23 µM (active) | 1.39 µM (inactive) | 0.284 µM (active) |  | 0.718 µM (active) | 0.452 µM (active) | 0.25 µM (active)
C=C1C(=O)OC2C1CC(O)/C(C)=C\CCC1(C)OC21 (stereo unspecified) | 31 µM (inactive) | 23 µM (inactive) | 25.4 µM (inactive) | 29.8 µM (inactive) | 16.3 µM | 23.7 µM (inactive) | 27.5 µM (inactive) | 32.5 µM (inactive) |  | 27.2 µM (inactive) | 19.1 µM (inactive) | 31.8 µM (inactive) | 17.4 µM (inactive) | 23.8 µM (inactive) | 30.3 µM (inactive) | 33.3 µM (inactive) | 48.1 µM (inactive) | 39.8 µM (inactive) | 19.2 µM (inactive)
OC1CCCN(C2(c3cccs3)CCCCC2)C1 (stereo unspecified) | > 100 µM (inactive) | > 100 µM (inactive) |  | > 100 µM (inactive) | > 100 µM | 74.6 µM (inactive) | > 100 µM (inactive) | 97.5 µM (inactive) | > 100 µM (inactive) | > 100 µM (inactive) | > 100 µM (inactive) | > 100 µM (inactive) | > 100 µM (inactive) | > 100 µM (inactive) | > 100 µM (inactive) | > 100 µM (inactive) |  | > 100 µM (inactive) | > 100 µM (inactive)
CCOC(=O)N1CCN(c2nc(C)n(-c3ccccc3)c(=S)c2C#N)CC1 | 42.8 µM (inactive) | > 51.9 µM (inactive) | > 23.4 µM (inactive) | > 68.2 µM (inactive) | > 55.6 µM | > 28.7 µM (inactive) | > 100 µM (inactive) | 32.4 µM (inactive) | > 50 µM (inactive) | > 74.6 µM (inactive) | > 50 µM (inactive) | 52.7 µM (inactive) | > 75 µM (inactive) | > 100 µM (inactive) | > 66.4 µM (inactive) | 61 µM (inactive) | > 78.2 µM (inactive) | 37.2 µM (inactive) | 
OC1(c2ccc(Cl)cc2)c2ccccc2-c2nc3ccccc3n21 (stereo unspecified) | 49.2 µM (inactive) | > 100 µM (inactive) | > 100 µM (inactive) | 90.4 µM (inactive) | > 100 µM | 58.9 µM (inactive) | 72.6 µM (inactive) | 73.5 µM (inactive) | > 100 µM (inactive) | > 100 µM (inactive) | > 100 µM (inactive) | 65.8 µM (inactive) | 48.4 µM (inactive) | > 100 µM (inactive) | 97.9 µM (inactive) | > 100 µM (inactive) | 51.6 µM (inactive) | > 100 µM (inactive) | 
